{"source": "paper PMC5667422", "about": "(Theranostics, 2017)", "system": "integrin α2β1 expression in A549 cells", "assay": "Integrin α2β1 expression in A549 cells after doxorubicin treatment", "format": "cell-based, human", "conditions": "doxorubicin 4 μg/mL", "data": [{"smiles": "COc1cccc2c1C(=O)c1c(O)c3c(c(O)c1C2=O)C[C@@](O)(C(=O)CO)C[C@@H]3O[C@H]1C[C@H](N)[C@H](O)[C@H](C)O1", "note": "[doxorubicin]", "values": [{"measurement": "integrin α2 and β1 protein levels by Western blot after treatment", "setting": "48 h, semi-quantitative, p < 0.01", "result": "markedly higher level of both integrin proteins"}, {"measurement": "integrin α2β1 expression by FACS after treatment", "setting": "48 h vs wild-type", "result": "clear shift in the abundance of integrin α2β1"}]}]}
